The values that follow come from patent US20070244056A1 (priority 2004, published 2007).

Assay [1] deals with Transgenic mice overexpressing human Cu/Zn-SOD G93A mutations. The assay is described as follows: Experimental model for amyotrophic lateral sclerosis (SOD1 G93A transgenic mice). Conditions: glatiramer acetate at both dosages; riluzole 30 mg/kg per day; during the course of treatment. The assay is classed as in vivo.
Procedure: Transgenic mice overexpressing human Cu/Zn-SOD G93A mutations ((B6SJL-TgN (SOD1-G93A) 1 Gur) and non-transgenic B6/SJL mice are purchased from Jackson Laboratories (Bar Harbor, Me., USA). The second generation of G1H mice are used.
A group of 15 mice serve as controls.
The drugs are administered in drinking water starting at 60 days of age.
The clinical condition of the mice is monitored daily starting at 40 days. The onset of clinical signs is scored by examining the mice for tremors and/or shaking of the limbs, the position of one or both hind limbs (hanging rather than splaying out) when the mice are suspended in the air by their tail. The age of clinical onset was determined by the age (days) at which loss of splay or tremors of hind limbs is observed. The loss of righting reflex determines the end stage of the disease. The mice are sacrificed if they could not right themselves within 30 seconds when placed on either side on a flat surface.
Mice are observed daily (including weekends) and weighed weekly. Motor performance is assessed from 40 days of age using the rotarod apparatus to measure the night activity of the mice from 8 p.m.-8 a.m.
Mice were perfused transcardially with 4% paraformaldehyde/0.9% NaCl solution, brains and whole spinal cord were dissected out, frozen in liquid nitrogen and cut in transverse sections of 20 μm on a sliding microtome. […]
Assay [2] relates to human patients afflicted with an unspecified form of multiple sclerosis. Conditions: administered alone; data of WO 00/74676; cited from earlier work.
In assay [3] the test system is multiple sclerosis (MS). Conditions: daily subcutaneous injections, 20 mg/injection; cited from earlier work.

Take `Nc1nc2ccc(OC(F)(F)F)cc2s1` [riluzole, 2-amino-6-trifluoromethoxy benzothiazole]: the “running wheel activity (motor activity)” value in assay [1] is “more active during the course of treatment and maintain their motor activity longer than controls”. In addition, in assay [2], the EDSS score result is on record as “No effect” and the “accumulation of hypointense lesions” value is on record as “showed a trend toward reduction”.

As to “L-glutamic acid polymer with L-alanine, L-lysine and L-tyrosine, acetate (salt) [glatiramer acetate]”, in assay [1], the “running wheel activity (motor activity)” value was “more active during the course of treatment and maintain their motor activity longer than controls”. In assay [3], the “appearance of "black holes"” value was “reduce”, the “appearance of new lesions by magnetic resonance imaging (MRI)” value is recorded as “reduce”, the progression of disability result is reported as “reduce” and the relapse rates result was “reduce”.
